# Results from patent US12428424B2, “Estrogen receptor-modulating compounds” (RADIUS PHARMACEUTICALS, INC., priority 2019, dated 2025).
# pIC50: −log10 of the molar value.
# System: MCF-7 cells
# Experiment: MCF-7 Proliferation Inhibition Assay (E2-induced proliferation, CellTiterGlo)
# Type: cell-based
# Settings: Homo sapiens, MCF7, 168 h, 10 pM dose of E2, 7 days incubation
# Experimental: Proliferation Assay in MCF-7 and T47 D Cells
# MCF-7 and T47D cells were stripped for 3 days in phenol red-free RPMI1640 media containing 10% charcoal-stripped fetal bovine serum (CS-FBS) and 1% Penicillin/streptomycin (P/S). Cells (volume of 90 μl/well) were seeded in 96 well plates at a density of 2500 cells/well for MCF-7 cells and 1500 cells/well for T47D cells. On the following day, plates were treated with the test compounds (10× concentration in media, volume of 10 μl/well added) both in the absence and in the presence of two doses of E2 (10 pM and 1 nM). The cells were incubated with test compounds for 7 days. The viability of the cells was assessed using CellTiterGlo (Promega, Cat #G7573) according to the manufacturer's instructions. Growth inhibition curves and IC50 values were calculated using the GraphPadPrism 6.0 software. Data values shown in Table 1 were obtained using the 10 pM dose of E2.
row,Compound,pIC50
1,"Cc1ccccc1-c1c(F)c2c3cn[nH]c3ccc2n1Cc1ccc(CCNCCCF)cc1F [Compound D-105, 3-fluoro-N-(3-fluoro-4-((8-fluoro-7-(o-tolyl)pyrrolo[3,2-e]indazol-6(3H)-yl)methyl)phenethyl)propan-1-amine]",> 9.00
2,"Cc1ccccc1-c1c(F)c2c3cn[nH]c3ccc2n1Cc1c(F)cc(CCNCCCF)cc1F [Compound D-106, N-(3,5-difluoro-4-((8-fluoro-7-(o-tolyl)pyrrolo[3,2-e]indazol-6(3H)-yl)methyl)phenethyl)-3-fluoropropan-1-amine]",> 9.00
3,"Cc1ccccc1-c1c(F)c2c3c(F)n[nH]c3ccc2n1Cc1ccc(CCNCCCF)cc1 [Compound D-107, N-(4-((1,8-difluoro-7-(o-tolyl)pyrrolo[3,2-e]indazol-6(3H)-yl)methyl)phenethyl)-3-fluoropropan-1-amine]",> 9.00
4,"Cc1ccccc1-c1cc2c3c(F)n[nH]c3ccc2n1Cc1ccc(CCNCCCF)cc1F [Compound D-108, 3-Fluoro-N-(3-fluoro-4-((1-fluoro-7-(o-tolyl)pyrrolo[3,2-e]indazol-6(3H)-yl)methyl)phenethyl)propan-1-amine]",> 9.00
5,"Cc1ccccc1-c1c(Cl)c2c3cn[nH]c3ccc2n1Cc1ccc(CCNCCCF)cc1 [Compound D-109, N-(4-((8-Chloro-7-(o-tolyl)pyrrolo[3,2-e]indazol-6(3H)-yl)methyl)phenethyl)-3-fluoropropan-1-amine]",> 9.00

# System: E2-induced increase in uterine weight
# Experiment: Immature rat uterine assay
# Type: in vivo, Sprague-Dawley rat
# Settings: immature rats, oral dose of 3 mg/kg in combination with E2 (0.01 mg/kg), once daily for three days
# Experimental: Immature Rat Uterine Assay
# Sprague-Dawley rat pups were weaned at 19 days of age, randomized into groups (n=6), and administered vehicle (aqueous 20% HPBCD, 10% PEG400 in H2O), E2 (0.01 mg/kg), test compounds (0.1 mg/kg-3 mg/kg) in combination with E2 (0.01 mg/kg), either by subcutaneous injection or by oral gavage, once daily for three consecutive days. Twenty-four hours after the final dose, all animals were killed by carbon dioxide inhalation. Body weights and wet uterine weights were recorded for each animal. GraphPadPrism 6.0 software was used to analyze data.
row,Compound,wet uterine weight
1,"Cc1ccccc1-c1c(F)c2c3cn[nH]c3ccc2n1Cc1ccc(CCNCCCF)cc1F [Compound D-105, 3-fluoro-N-(3-fluoro-4-((8-fluoro-7-(o-tolyl)pyrrolo[3,2-e]indazol-6(3H)-yl)methyl)phenethyl)propan-1-amine]",suppressed wet uterine weight to baseline
